pEC50: −log10 of the molar value. Read-outs that look alike come from different tables or passages of the source.
How the values were obtained:
Assay type in all cases: cell-based
[1] = system: HCV 2a JFH-1 Rluc cells (dicistronic genotype 2a JFH-1 replicon, RLuc reporter); assay: microbe, parasite or virus in culture; conditions: Hepatitis C virus, read-out: 2a JFH
Procedure, shortened: (§1)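 Renilla luciferase HCV replicon cells: dicistronic 1b Con1, 1a H77 or 2a JFH-1 replicons, or a JFH-1 chimera carrying J6 NS5A (M31 present). Compound in DMSO serial dilutions, 72 h incubation, then lysis and luciferase read. EC50 by non-linear regression.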

[2] = system: HCV 1a RLuc cells (dicistronic genotype 1a H77 replicon, RLuc reporter); assay: microbe, parasite or virus in culture; conditions: Hepatitis C virus, read-out: 1a
Procedure, shortened: as §1

[3] = system: HCV 3a RLuc cells (NS5A chimeric genotype 1b Con1 replicon with consensus genotype 3a NS5A gene); assay: microbe, parasite or virus in culture; conditions: Hepatitis C virus
Procedure, shortened: (§2)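 Replicon cells stably carrying the listed RLuc-encoding dicistronic replicons were seeded and treated with DMSO serial dilutions of compound (10 mM stocks) diluted into culture medium. After 72 h, cells were lysed and Renilla luciferase activity measured. EC50 was derived by non-linear regression.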

[4] = system: HCV 2b Rluc cells (NS5A chimeric genotype 2a JFH-1 replicon with genotype 2b MD2b-1 NS5A gene, M31 present); assay: microbe, parasite or virus in culture; conditions: Hepatitis C virus, read-out: 2b
Procedure, shortened: as §2

[5] = system: HCV 4a Rluc cells (NS5A chimeric genotype 1b Con1 replicon with genotype 4a NS5A gene); assay: microbe, parasite or virus in culture; conditions: Hepatitis C virus, read-out: 4a
Procedure, shortened: as §2

[6] = system: HCV 1b RLuc cells (dicistronic genotype 1b Con1 replicon, RLuc reporter); assay: microbe, parasite or virus in culture; conditions: Hepatitis C virus, read-out: 1b (nM)
Procedure, shortened: as §1

[7] = system: HCV 2a Rluc cells (NS5A chimeric genotype 2a JFH-1 replicon with genotype 2a J6 strain NS5A gene, M31 present); assay: HCV replicon reporter assay, genotype 2a J6 (M31 present); conditions: Hepatitis C virus, read-out: 2a J6
Procedure, shortened: as §1

[8] = read-out: 3a, genotype 3a replicon
[9] = genotype 2a JFH-1 RLuc replicon
[10] = read-out: 3a, genotype 3a NS5A chimeric replicon

| Structure (SMILES) | pEC50 ([1]; genotype 2a JFH-1 replicon) | pEC50 ([2]; genotype 1a replicon) | pEC50 [3, 8] | pEC50 [4] | pEC50 [5] | EC50 [6] | pEC50 [7] | pEC50 [1, 9] | pEC50 ([2]; genotype 1a H77 RLuc replicon) | pEC50 [3, 10] | pEC50 ([1]; genotype 2a JFH-1 replicon, RLuc reporter) | pEC50 ([2]; genotype 1a H77 replicon, RLuc reporter) | pEC50 ([3]; read-out: 3a, genotype 3a NS5A chimeric 1b Con1 replicon) |
| --- | --- | --- | --- | --- | --- | --- | --- | --- | --- | --- | --- | --- | --- |
| COC(=O)N[C@H](C(=O)N1[C@@H]2C[C@@H]2C[C@H]1c1nc(Cl)c(-c2ccc(-c3ccc4c(ccc5nc([C@@H]6C[C@H]7C[C@H]7N6C(=O)[C@@H](NC(=O)OC)C(C)C)[nH]c54)c3)cc2F)[nH]1)C(C)C [Example 395] | 9.00 to 12.00 | 9.00 to 12.00 | 9.00 to 12.00 | < 7.36 | 9.00 to 12.00 | 0.004 nM | < 7.36 | – | – | – | – | – | – |
| COC(=O)N[C@H](C(=O)N1CCC[C@H]1c1nc2ccc3cc(-c4ccc5c(ccc6nc([C@@H]7C[C@H](COC(F)F)CN7C(=O)[C@H](NC(=O)C7CC7)c7ccccc7)[nH]c65)c4)ccc3c2[nH]1)C(C)C [Example 547] | – | – | – | 9.00 to 12.00 | 9.00 to 12.00 | 0.005 nM | 9.00 to 12.00 | 9.00 to 12.00 | 9.00 to 12.00 | 9.00 to 12.00 | – | – | – |
| CC(=O)N[C@@H](C(=O)N1CCC[C@H]1c1ncc(-c2cc3c4c(c2)OCc2cc(-c5cnc([C@@H]6CCCN6C(=O)[C@H](NC(C)=O)c6ccccc6)[nH]5)cc(c2-4)OC3)[nH]1)c1ccccc1 [Example 419] | 9.00 to 12.00 | 7.36 to 9.00 | 9.00 to 12.00 | 9.00 to 12.00 | 9.00 to 12.00 | 0.786 nM | 9.00 to 12.00 | – | – | – | – | – | – |
| COC(=O)N[C@H](C(=O)N1CCC[C@H]1c1nc2ccc3cc(-c4ccc5cc(-c6cnc([C@@H]7CCCN7C(=O)[C@H](NC(=O)OC)c7ccccc7)[nH]6)ccc5c4)ccc3c2[nH]1)C(C)C [Example 206] | – | – | – | < 7.36 | 9.00 to 12.00 | 0.005 nM | 7.36 to 9.00 | – | – | – | 9.00 to 12.00 | 9.00 to 12.00 | 9.00 to 12.00 |
| COC(=O)N[C@H](C(=O)N1CCC[C@H]1c1nc(Cl)c(-c2ccc(-c3ccc(-c4[nH]c([C@@H]5CCCN5C(=O)[C@@H](NC(=O)OC)C(C)C)nc4Cl)cc3)cc2)[nH]1)C(C)C [Example 352] | 9.00 to 12.00 | 9.00 to 12.00 | 9.00 to 12.00 | 7.36 to 9.00 | 9.00 to 12.00 | 0.011 nM | 7.36 to 9.00 | – | – | – | – | – | – |
| O=C(N[C@@H](C(=O)N1CCC[C@H]1c1ncc(-c2cc3c4c(c2)OCc2cc(-c5cnc([C@@H]6CCCN6C(=O)[C@H](NC(=O)C6CCOCC6)c6ccccc6)[nH]5)cc(c2-4)OC3)[nH]1)c1ccccc1)C1CCOCC1 [Example 490] | – | – | – | 9.00 to 12.00 | 9.00 to 12.00 | 0.989 nM | 9.00 to 12.00 | 9.00 to 12.00 | 7.36 to 9.00 | 9.00 to 12.00 | – | – | – |
| CN(C)CC(=O)N[C@@H](C(=O)N1CCC[C@H]1c1ncc(-c2cc3c4c(c2)OCc2cc(-c5cnc([C@@H]6CCCN6C(=O)[C@H](NC(=O)CN(C)C)c6ccccc6)[nH]5)cc(c2-4)OC3)[nH]1)c1ccccc1 [Example 462] | 9.00 to 12.00 | 7.36 to 9.00 | 9.00 to 12.00 | 7.36 to 9.00 | 8.30 to 9.00 | 8.76 nM | 7.36 to 9.00 | – | – | – | – | – | – |
| CC#Cc1cc(-c2cnc([C@@H]3CCCN3C(=O)[C@@H](NC(=O)OC)C(C)C)[nH]2)ccc1-c1ccc2c(ccc3nc([C@@H]4C[C@H](COC)CN4C(=O)[C@H](NC(=O)OC)c4ccccc4)[nH]c32)c1 [Example 549] | – | – | – | 9.00 to 12.00 | 9.00 to 12.00 | 0.007 nM | 9.00 to 12.00 | 9.00 to 12.00 | 9.00 to 12.00 | 9.00 to 12.00 | – | – | – |
| COC(=O)N[C@@H](C(=O)N1CCC[C@H]1c1nc(Cl)c(-c2cc3c4c(c2)OCc2cc(-c5[nH]c([C@@H]6CCCN6C(=O)[C@H](NC(=O)OC)c6ccccc6)nc5Cl)cc(c2-4)OC3)[nH]1)c1ccccc1 [Example 421] | 9.00 to 12.00 | 9.00 to 12.00 | 9.00 to 12.00 | 9.00 to 12.00 | 9.00 to 12.00 | 0.041 nM | 9.00 to 12.00 | – | – | – | – | – | – |
| CC[C@H](C)[C@H](NC(=O)OC)C(=O)N1CCC[C@H]1c1nc2ccc3cc(-c4ccc5c(ccc6nc([C@@H]7C[C@H](COC)CN7C(=O)[C@H](NC(=O)OC)c7ccccc7)[nH]c65)c4)ccc3c2[nH]1 [Example 509] | – | – | – | 9.00 to 12.00 | 9.00 to 12.00 | 0.028 nM | 9.00 to 12.00 | 9.00 to 12.00 | 9.00 to 12.00 | 9.00 to 12.00 | – | – | – |
| O=C(C(c1ccccc1)N1CCCOCC1)N1CCC[C@H]1c1ncc(-c2cc3c4c(c2)OCc2cc(-c5cnc([C@@H]6CCCN6C(=O)C(c6ccccc6)N6CCCOCC6)[nH]5)cc(c2-4)OC3)[nH]1 (some centres unmarked) [Example 445] | 9.00 to 12.00 | 7.36 to 9.00 | 9.00 to 12.00 | 7.36 to 9.00 | 9.00 to 12.00 | 0.336 nM | 7.36 to 9.00 | – | – | – | – | – | – |

From US10344019B2 (priority 2010, dated 2019)
